# Test results from patent US20260256742A1, “ANDROGEN RECEPTOR ANTAGONISTS FOR THE TREATMENT OF PATIENTS WITH BIOCHEMICAL RECURRENCE OF HORMONE SENSITIVE PROSTATE CANCER” (BAYER CONSUMER CARE AG, priority 2023, published 2026).
# “Also recorded” adds a separate entry of the source. Like-named read-outs stand apart in the source and are kept apart here.
# Key:
# [1] = test system: prostate cancer cells rendered castration resistant via overexpression of AR; conditions: cited from earlier work
# MATE2-K = MATE2-K (Homo sapiens, UniProt Q86VL8); conditions: in vitro; cited from earlier work
# Chain of MATE2-K (Q86VL8 1-566 isoform Q86VL8-3): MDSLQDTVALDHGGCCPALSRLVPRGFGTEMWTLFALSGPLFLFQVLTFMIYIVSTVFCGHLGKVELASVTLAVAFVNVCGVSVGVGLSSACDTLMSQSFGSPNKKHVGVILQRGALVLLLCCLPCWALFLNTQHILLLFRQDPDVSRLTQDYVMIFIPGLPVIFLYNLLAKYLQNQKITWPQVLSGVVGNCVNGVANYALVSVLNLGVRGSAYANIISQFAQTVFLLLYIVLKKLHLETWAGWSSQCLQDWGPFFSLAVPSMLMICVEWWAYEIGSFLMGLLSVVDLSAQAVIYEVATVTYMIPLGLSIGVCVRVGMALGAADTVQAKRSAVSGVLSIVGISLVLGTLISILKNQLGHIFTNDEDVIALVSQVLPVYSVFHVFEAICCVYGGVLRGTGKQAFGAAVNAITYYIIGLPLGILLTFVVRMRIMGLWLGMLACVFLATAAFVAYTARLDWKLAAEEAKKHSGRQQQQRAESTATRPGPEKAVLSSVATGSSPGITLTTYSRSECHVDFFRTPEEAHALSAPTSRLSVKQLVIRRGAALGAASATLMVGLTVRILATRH
# AR = conditions: cited from earlier work
# [2] = in vitro and in vivo; cited from earlier work
# [3] = dog, in vivo
# [4] = rat, in vivo
# [5] = target: T1, breast cancer resistance protein (BCRP) (Homo sapiens, UniProt Q9UNQ0); conditions: cited from earlier work
# T1 sequence (Q9UNQ0 1-655): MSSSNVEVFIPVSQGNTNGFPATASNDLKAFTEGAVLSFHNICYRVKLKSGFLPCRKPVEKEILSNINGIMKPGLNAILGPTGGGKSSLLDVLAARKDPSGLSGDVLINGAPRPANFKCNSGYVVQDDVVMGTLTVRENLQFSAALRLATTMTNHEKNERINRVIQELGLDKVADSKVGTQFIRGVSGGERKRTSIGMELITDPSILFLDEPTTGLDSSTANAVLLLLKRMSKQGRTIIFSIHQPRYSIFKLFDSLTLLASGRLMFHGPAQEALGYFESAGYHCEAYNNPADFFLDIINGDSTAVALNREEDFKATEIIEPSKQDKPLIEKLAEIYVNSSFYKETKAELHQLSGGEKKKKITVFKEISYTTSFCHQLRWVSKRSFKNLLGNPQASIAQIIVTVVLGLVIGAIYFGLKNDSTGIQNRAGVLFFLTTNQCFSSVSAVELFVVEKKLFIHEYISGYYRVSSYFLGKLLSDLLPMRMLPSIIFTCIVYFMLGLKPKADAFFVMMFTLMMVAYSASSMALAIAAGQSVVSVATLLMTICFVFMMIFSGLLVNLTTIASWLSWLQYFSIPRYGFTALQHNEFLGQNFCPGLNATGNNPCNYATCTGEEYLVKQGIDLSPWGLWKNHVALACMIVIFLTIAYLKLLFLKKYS
# OATP1B3 = target: T2, OATP1B3 (Homo sapiens, UniProt Q9NPD5); conditions: in vitro; cited from earlier work
# T2 sequence (Q9NPD5 1-702): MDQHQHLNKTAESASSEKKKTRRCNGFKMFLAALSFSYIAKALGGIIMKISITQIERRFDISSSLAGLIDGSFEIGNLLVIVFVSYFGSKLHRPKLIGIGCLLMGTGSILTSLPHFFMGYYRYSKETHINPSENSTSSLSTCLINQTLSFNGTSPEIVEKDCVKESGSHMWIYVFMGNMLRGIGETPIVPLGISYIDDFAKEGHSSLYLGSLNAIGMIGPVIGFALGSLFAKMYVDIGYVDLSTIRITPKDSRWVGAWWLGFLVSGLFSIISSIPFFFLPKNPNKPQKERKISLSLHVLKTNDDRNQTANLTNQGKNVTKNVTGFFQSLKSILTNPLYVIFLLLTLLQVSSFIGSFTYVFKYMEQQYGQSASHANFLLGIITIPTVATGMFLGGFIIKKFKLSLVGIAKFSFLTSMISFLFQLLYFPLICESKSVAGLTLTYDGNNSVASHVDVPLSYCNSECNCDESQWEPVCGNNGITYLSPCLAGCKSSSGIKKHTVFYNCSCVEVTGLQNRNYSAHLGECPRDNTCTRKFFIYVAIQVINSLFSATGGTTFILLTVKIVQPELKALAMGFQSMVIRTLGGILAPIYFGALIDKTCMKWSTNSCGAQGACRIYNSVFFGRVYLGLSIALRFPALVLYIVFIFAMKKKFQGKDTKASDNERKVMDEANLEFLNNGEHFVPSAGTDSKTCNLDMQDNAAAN
# [6] = cited from earlier work
# [7] = rats; cited from earlier work
# [8] = target: T3, multidrug and toxin extrusion (MATE)1 (Homo sapiens, UniProt Q96FL8); conditions: in vitro; cited from earlier work
# T3 sequence (Q96FL8 1-570): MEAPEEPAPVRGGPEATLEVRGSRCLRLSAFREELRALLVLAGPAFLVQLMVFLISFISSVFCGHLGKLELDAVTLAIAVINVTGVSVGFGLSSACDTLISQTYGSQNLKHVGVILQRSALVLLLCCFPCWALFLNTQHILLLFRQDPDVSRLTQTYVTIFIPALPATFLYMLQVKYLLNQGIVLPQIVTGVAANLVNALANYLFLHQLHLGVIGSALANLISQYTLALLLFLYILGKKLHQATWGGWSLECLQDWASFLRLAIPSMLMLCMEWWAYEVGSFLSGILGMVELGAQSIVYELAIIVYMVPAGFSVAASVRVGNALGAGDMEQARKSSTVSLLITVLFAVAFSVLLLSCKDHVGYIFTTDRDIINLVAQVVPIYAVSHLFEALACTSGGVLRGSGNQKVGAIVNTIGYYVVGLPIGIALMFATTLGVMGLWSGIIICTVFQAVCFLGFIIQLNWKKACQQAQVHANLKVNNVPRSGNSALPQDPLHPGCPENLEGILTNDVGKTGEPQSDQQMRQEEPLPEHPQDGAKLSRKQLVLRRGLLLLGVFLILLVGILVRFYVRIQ
# nmCRPC = conditions: in combination with ADT, patients with nmCRPC; cited from earlier work
# Cytochrome P450 (CYP)3A4 = Cytochrome P450 (CYP)3A4 (Homo sapiens, UniProt P08684); conditions: in vitro; cited from earlier work
# Chain of Cytochrome P450 (CYP)3A4 (P08684 whole entry): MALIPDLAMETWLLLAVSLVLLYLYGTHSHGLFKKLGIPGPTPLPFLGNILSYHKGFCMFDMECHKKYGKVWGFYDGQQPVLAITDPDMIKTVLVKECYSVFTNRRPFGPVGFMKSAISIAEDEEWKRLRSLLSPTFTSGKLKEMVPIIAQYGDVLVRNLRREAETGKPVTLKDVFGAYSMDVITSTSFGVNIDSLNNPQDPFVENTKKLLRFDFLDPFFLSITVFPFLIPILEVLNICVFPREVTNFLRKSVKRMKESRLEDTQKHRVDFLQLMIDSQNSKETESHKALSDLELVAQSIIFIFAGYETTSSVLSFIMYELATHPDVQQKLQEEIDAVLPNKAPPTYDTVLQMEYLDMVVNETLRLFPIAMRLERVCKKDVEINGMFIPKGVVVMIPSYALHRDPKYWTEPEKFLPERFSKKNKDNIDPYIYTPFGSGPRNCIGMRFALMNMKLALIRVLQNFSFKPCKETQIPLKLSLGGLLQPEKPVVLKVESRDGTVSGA
# CYP2B6 = conditions: in vitro; cited from earlier work
# [9] = test system: human prostate cancer xenograft models; conditions: cited from earlier work
smiles,measurement,setting,value
CC(O)c1cc(C(=O)N[C@@H](C)Cn2ccc(-c3ccc(C#N)c(Cl)c3)n2)[nH]n1 (stereo partly drawn) [Darolutamide],agonist activity with AR overexpression,[1],lacks the partial agonist activity
same,inhibition of MATE2-K-mediated transport,MATE2-K,observed
same,binding affinity to the AR,AR,greater affinity than bicalutamide; also recorded: high affinity
same,"interconversion of the diastereoisomers (S,R)- and (S,S)- via keto-darolutamide",[2],Rapid interconversion
same,additional changes to reproductive tissues,[3],"testicular hypospermia, seminiferous tubule dilatation and degeneration"
same,deaths during the treatment period,[3],No deaths occurred
same,other adverse effects,[3],No other adverse effects were observed
same,reversibility of changes in the male reproductive organs,[3],reversed or partially resolved
same,additional changes to reproductive tissues,[4],"minimal increase in vacuolation of the pituitary gland, atrophy and secretory reduction in seminal vesicles and mammary glands"
same,deaths during the treatment period,[4],No deaths occurred
same,other adverse effects,[4],No other adverse effects were observed
same,reversibility of changes in the male reproductive organs,[4],reversed or partially resolved
same,substrate for BCRP,[5],substrate
same,inhibition of OATP1B3-mediated transport,OATP1B3,observed
same,effect of co-administration on CYP3A4/P-gp substrates,[6]; Phase I,no effect or only minor effects
same,increase of rosuvastatin exposure with darolutamide,[6]; because of BCRP and probably also OATPB1/OATPB3 inhibition,5.2 fold
same,increase of darolutamide exposure,"[6]; co-administered itraconazole, Phase I",1.75 fold
same,decrease of darolutamide exposure,"[6]; with rifampicin, Phase I",72%
same,absorption,[7],complete and rapid absorption
same,bioavailability,[7],high bioavailability
same,inhibition of MATE1-mediated transport,[8],observed
same,metastatic free survival (MFS),nmCRPC,significantly increased
same,overall survival (OS),nmCRPC,significantly increased
same,main metabolic pathway,Cytochrome P450 (CYP)3A4,mainly metabolized via oxidative biotransformation catalyzed by Cytochrome P450 (CYP)3A4
same,induction of CYP2B6 activity,CYP2B6,no relevant induction
same,tumor regression,[9]; non-castrate hormone-sensitive and bicalutamide-resistant human prostate cancer xenograft models,partial or complete tumor regression
same,prostate tumor progression,[9]; several cell line- and patient derived models,inhibits prostate tumor progression
